Tests used:
Test in all cases: relative viability (nuclei count vs DMSO), 5 days (fraction); higher = more cells survive
VE-821 + Olaparib = compound: CS(=O)(=O)c1ccc(-c2cnc(N)c(C(=O)Nc3ccccc3)n2)cc1 [VE-821] + O=C(c1cc(Cc2n[nH]c(=O)c3ccccc23)ccc1F)N1CCN(C(=O)C2CC2)CC1 [Olaparib] (partner 8 µM)
Summary of the method: (§1)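 Lung cancer cell lines in 1536-well plates got either a single drug or a fixed anchor-drug dose together with five library-drug doses (not always all listed) in √10 steps, by pin tool, on the day after seeding. Nuclei were counted after 5 days, and relative viability is the treated-to-vehicle ratio of nuclei counts. Values are medians of duplicate plates.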

Vismodegib + Pictilisib = compound: CS(=O)(=O)c1ccc(C(=O)Nc2ccc(Cl)c(-c3ccccn3)c2)c(Cl)c1 [Vismodegib] + CS(=O)(=O)N1CCN(Cc2cc3nc(-c4cccc5[nH]ncc45)nc(N4CCOCC4)c3s2)CC1 [Pictilisib] (partner 1 µM)
Summary of the method: as §1

Vismodegib + Vorinostat = compound: CS(=O)(=O)c1ccc(C(=O)Nc2ccc(Cl)c(-c3ccccn3)c2)c(Cl)c1 [Vismodegib] + O=C(CCCCCCC(=O)Nc1ccccc1)NO [Vorinostat] (partner 1 µM)
Summary of the method: as §1

Ruxolitinib + Decitabine = compound: N#CC[C@H](C1CCCC1)n1cc(-c2ncnc3[nH]ccc23)cn1 [Ruxolitinib] + Nc1ncn([C@H]2C[C@H](O)[C@@H](CO)O2)c(=O)n1 [Decitabine] (partner 2 µM)
Summary of the method: as §1

## UMC-11
VE-821 + Olaparib; first compound 0.08 µM
  relative viability: 0.82
VE-821 + Olaparib; first compound 0.253 µM
  relative viability: 0.429
VE-821 + Olaparib; first compound 0.8 µM
  relative viability: 0.374
VE-821 + Olaparib; first compound 2.53 µM
  relative viability: 0.274
VE-821 + Olaparib; first compound 8 µM
  relative viability: 0.208
Vismodegib + Pictilisib; first compound 0.08 µM
  relative viability: 0.727
Vismodegib + Pictilisib; first compound 0.253 µM
  relative viability: 0.703
Vismodegib + Pictilisib; first compound 0.8 µM
  relative viability: 0.738
Vismodegib + Pictilisib; first compound 2.53 µM
  relative viability: 0.75
Vismodegib + Pictilisib; first compound 8 µM
  relative viability: 0.271
Vismodegib + Vorinostat; first compound 0.08 µM
  relative viability: 0.392
Vismodegib + Vorinostat; first compound 0.253 µM
  relative viability: 0.373
Vismodegib + Vorinostat; first compound 0.8 µM
  relative viability: 0.415
Vismodegib + Vorinostat; first compound 2.53 µM
  relative viability: 0.35
Vismodegib + Vorinostat; first compound 8 µM
  relative viability: 0.462
Ruxolitinib + Decitabine; first compound 0.08 µM
  relative viability: 0.745
Ruxolitinib + Decitabine; first compound 0.253 µM
  relative viability: 0.62
Ruxolitinib + Decitabine; first compound 0.8 µM
  relative viability: 0.797
Ruxolitinib + Decitabine; first compound 2.53 µM
  relative viability: 0.433
Ruxolitinib + Decitabine; first compound 8 µM
  relative viability: 0.627

Source: the supplement of paper PMC10307832
